Results as given in ChEMBL document CHEMBL4011618, “Discovery of Potent, Selective Stem Cell Factor Receptor/Platelet Derived Growth Factor Receptor Alpha (c-KIT/PDGFRα) Dual Inhibitor for the Treatment of Imatinib-Resistant Gastrointestinal Stromal Tumors (GISTs)” (J Med Chem, 2017).
pIC50: −log10 of the molar value.

How the values were obtained:
[1] = Apparent clearance in Sprague-Dawley rat at 2 mg/kg, iv up to 24 hrs post dose by LC/MS/MS analysis; type: ADME, organism-based; conditions: in vivo, read-out: CL(app) (converted)
[2] = test system: Mast/stem cell growth factor receptor Kit (Homo sapiens), P10721 [V559D,V654A]
KU812 cell line = assay: Antiproliferative activity against human KU812 cells assessed as cell growth inhibition after 72 hrs by cell titer-glo assay; type: functional; conditions: KU812, 72 h
Mus musculus [3] = assay: Toxicity in nu/nu mouse xenografted with human GISTT1 cells assessed as mortality at 25 to 100 mg/kg, ip administered daily for 28 days measured during compound dosing; type: organism-based; conditions: in vivo, 672 h
[4] = AUC (0 to t) in Sprague-Dawley rat at 100 mg/kg, ip up to 24 hrs post dose by LC/MS/MS analysis; type: ADME, organism-based; set-up: dose 100 mg/kg, time < 24 hr, route intraperitoneal; conditions: in vivo
[5] = Cmax in Sprague-Dawley rat at 25 mg/kg, ip up to 24 hrs post dose by LC/MS/MS analysis; type: ADME, organism-based; set-up: dose 25 mg/kg, route intraperitoneal; conditions: in vivo
[6] = Cmax in Sprague-Dawley rat at 2 mg/kg, iv up to 24 hrs post dose by LC/MS/MS analysis; type: ADME, organism-based; set-up: dose 2 mg/kg, route intravenous; conditions: in vivo
[7] = test system: Mast/stem cell growth factor receptor Kit (Homo sapiens), P10721 [D816H]
Description: Inhibition of TEL-fused cKIT D816H mutant (unknown origin) expressed in mouse BAF3 cells assessed as cell growth inhibition after 72 hrs by cell titer-glo assay

[8] = Half life in rat liver microsomes at 1 uM in presence of NADPH by LC-MS/MS; type: ADME, microsome
[9] = Tmax in Sprague-Dawley rat at 2 mg/kg, iv up to 24 hrs post dose by LC/MS/MS analysis; type: ADME, organism-based; conditions: in vivo
[10] = target: Receptor-type tyrosine-protein kinase FLT3 (Homo sapiens, UniProt P36888); assay: Inhibition of human His-tagged FLT3 (564 to 958 residues) expressed in baculovirus by ELISA
[11] = target: Proto-oncogene tyrosine-protein kinase receptor Ret (Homo sapiens, UniProt P07949); assay: Inhibition of human GST-tagged RET (658 to 1114 residues) expressed in baculovirus by ELISA
[12] = test system: Mast/stem cell growth factor receptor Kit (Homo sapiens), P10721 [V559D,T670I]
[13] = Half life in Sprague-Dawley rat at 100 mg/kg, ip up to 24 hrs post dose by LC/MS/MS analysis; type: ADME, organism-based; conditions: in vivo
[14] = test system: Mast/stem cell growth factor receptor Kit (Homo sapiens), P10721 [V654A]
Description: Inhibition of TEL-fused cKIT V654A mutant (unknown origin) expressed in mouse BAF3 cells assessed as cell growth inhibition after 72 hrs by cell titer-glo assay

[15] = target: T1, Mast/stem cell growth factor receptor Kit (Homo sapiens, UniProt P10721)
Description: Inhibition of cKIT (unknown origin) using FAM-labeled peptide as substrate preincubated for 10 mins followed by substrate addition in presence of ATP by mobility shift assay

[16] = Half life in Sprague-Dawley rat at 2 mg/kg, iv up to 24 hrs post dose by LC/MS/MS analysis; type: ADME, organism-based; conditions: in vivo
[17] = Tmax in Sprague-Dawley rat at 100 mg/kg, ip up to 24 hrs post dose by LC/MS/MS analysis; type: ADME, organism-based; conditions: in vivo
[18] = target: Vascular endothelial growth factor receptor 1 (Homo sapiens, UniProt P17948); assay: Inhibition of human GST-tagged FLT1 (781 to 1338 residues) expressed in baculovirus by ELISA
[19] = target: Vascular endothelial growth factor receptor 3 (Homo sapiens, UniProt P35916); assay: Inhibition of human GST-tagged FLT4 (800 to 1297 residues) expressed in baculovirus by ELISA
[20] = AUC (0 to t) in Sprague-Dawley rat at 25 mg/kg, ip up to 24 hrs post dose by LC/MS/MS analysis; type: ADME, organism-based; set-up: dose 25 mg/kg, time < 24 hr, route intraperitoneal; conditions: in vivo
[21] = MRT (0 to t) in Sprague-Dawley rat at 25 mg/kg, ip up to 24 hrs post dose by LC/MS/MS analysis; type: ADME, organism-based; conditions: in vivo
[22] = MRT (0 to infinity) in Sprague-Dawley rat at 100 mg/kg, ip up to 24 hrs post dose by LC/MS/MS analysis; type: ADME, organism-based; conditions: in vivo
[23] = test system: Mast/stem cell growth factor receptor Kit (Homo sapiens), P10721 [L576P]
Description: Inhibition of TEL-fused cKIT L576P mutant (unknown origin) expressed in mouse BAF3 cells assessed as cell growth inhibition after 72 hrs by cell titer-glo assay

[24] = AUC (0 to infinity) in Sprague-Dawley rat at 100 mg/kg, ip up to 24 hrs post dose by LC/MS/MS analysis; type: ADME, organism-based; set-up: dose 100 mg/kg, time infinity, route intraperitoneal; conditions: in vivo
K562 = assay: Antiproliferative activity against human K562 cells assessed as cell growth inhibition after 72 hrs by cell titer-glo assay; type: functional; conditions: K562, 72 h
BaF3 [25] = assay: Antitumor activity against mouse BAF3 cells harboring TEL-cKIT-T670I mutant allografted in nu/nu mouse assessed as tumor growth inhibition at 25 mg/kg, ip administered daily for 11 days relative to control; type: functional; conditions: 264 h, read-out: TGI
[26] = target: T1, Mast/stem cell growth factor receptor Kit; remark: listed apart in the source
Description: Inhibition of TEL-fused cKIT (unknown origin) expressed in mouse BAF3 cells assessed as cell growth inhibition after 72 hrs by cell titer-glo assay

GISTT1 = assay: Antitumor activity against human GISTT1 cells xenografted in nu/nu mouse assessed as tumor growth inhibition at 25 mg/kg, ip administered daily for 28 days relative to control; type: functional; conditions: 672 h, read-out: TGI
[27] = test system: Mast/stem cell growth factor receptor Kit (Homo sapiens), P10721 [N822K]
Description: Inhibition of TEL-fused cKIT N822K mutant (unknown origin) expressed in mouse BAF3 cells assessed as cell growth inhibition after 72 hrs by cell titer-glo assay

[28] = Antiproliferative activity against CHO cells assessed as cell growth inhibition after 72 hrs by cell titer-glo assay; type: cell-based, Cricetulus griseus; conditions: chinese hamster
[29] = target: T2, Platelet-derived growth factor receptor alpha (Homo sapiens, UniProt P16234)
Description: Inhibition of TEL-fused PDGFRalpha (unknown origin) expressed in mouse BAF3 cells assessed as cell growth inhibition after 72 hrs by cell titer-glo assay

[30] = target: T2, Platelet-derived growth factor receptor alpha; assay: Inhibition of PDGFRalpha (unknown origin) using FAM-labeled peptide as substrate preincubated for 10 mins followed by substrate addition in presence of ATP by mobility shift assay
[31] = AUC (0 to t) in Sprague-Dawley rat at 2 mg/kg, iv up to 24 hrs post dose by LC/MS/MS analysis; type: ADME, organism-based; set-up: dose 2 mg/kg, time < 24 hr, route intravenous; conditions: in vivo
[32] = AUC (0 to infinity) in Sprague-Dawley rat at 25 mg/kg, ip up to 24 hrs post dose by LC/MS/MS analysis; type: ADME, organism-based; set-up: dose 25 mg/kg, time infinity, route intraperitoneal; conditions: in vivo
Mus musculus [33] = assay: Toxicity in nu/nu mouse xenografted with human GISTT1 cells assessed as body weight loss at 25 to 100 mg/kg, ip administered daily for 28 days measured during compound dosing; type: organism-based; conditions: in vivo, 672 h
[34] = target: Vascular endothelial growth factor receptor 2 (Homo sapiens, UniProt P35968)
Description: Inhibition of VEGFR2 (unknown origin) using FAM-labeled peptide as substrate preincubated for 10 mins followed by substrate addition in presence of ATP by mobility shift assay

BaF3 [35] = assay: Antitumor activity against mouse BAF3 cells harboring TEL-cKIT-T670I mutant allografted in nu/nu mouse assessed as tumor growth inhibition at 100 mg/kg, ip administered daily for 11 days relative to control; type: functional; conditions: 264 h, read-out: TGI
MEG-01 = assay: Antiproliferative activity against human MEG01 cells assessed as cell growth inhibition after 72 hrs by cell titer-glo assay; type: functional; conditions: MEG-01, 72 h

T2 sequence (P16234 whole entry): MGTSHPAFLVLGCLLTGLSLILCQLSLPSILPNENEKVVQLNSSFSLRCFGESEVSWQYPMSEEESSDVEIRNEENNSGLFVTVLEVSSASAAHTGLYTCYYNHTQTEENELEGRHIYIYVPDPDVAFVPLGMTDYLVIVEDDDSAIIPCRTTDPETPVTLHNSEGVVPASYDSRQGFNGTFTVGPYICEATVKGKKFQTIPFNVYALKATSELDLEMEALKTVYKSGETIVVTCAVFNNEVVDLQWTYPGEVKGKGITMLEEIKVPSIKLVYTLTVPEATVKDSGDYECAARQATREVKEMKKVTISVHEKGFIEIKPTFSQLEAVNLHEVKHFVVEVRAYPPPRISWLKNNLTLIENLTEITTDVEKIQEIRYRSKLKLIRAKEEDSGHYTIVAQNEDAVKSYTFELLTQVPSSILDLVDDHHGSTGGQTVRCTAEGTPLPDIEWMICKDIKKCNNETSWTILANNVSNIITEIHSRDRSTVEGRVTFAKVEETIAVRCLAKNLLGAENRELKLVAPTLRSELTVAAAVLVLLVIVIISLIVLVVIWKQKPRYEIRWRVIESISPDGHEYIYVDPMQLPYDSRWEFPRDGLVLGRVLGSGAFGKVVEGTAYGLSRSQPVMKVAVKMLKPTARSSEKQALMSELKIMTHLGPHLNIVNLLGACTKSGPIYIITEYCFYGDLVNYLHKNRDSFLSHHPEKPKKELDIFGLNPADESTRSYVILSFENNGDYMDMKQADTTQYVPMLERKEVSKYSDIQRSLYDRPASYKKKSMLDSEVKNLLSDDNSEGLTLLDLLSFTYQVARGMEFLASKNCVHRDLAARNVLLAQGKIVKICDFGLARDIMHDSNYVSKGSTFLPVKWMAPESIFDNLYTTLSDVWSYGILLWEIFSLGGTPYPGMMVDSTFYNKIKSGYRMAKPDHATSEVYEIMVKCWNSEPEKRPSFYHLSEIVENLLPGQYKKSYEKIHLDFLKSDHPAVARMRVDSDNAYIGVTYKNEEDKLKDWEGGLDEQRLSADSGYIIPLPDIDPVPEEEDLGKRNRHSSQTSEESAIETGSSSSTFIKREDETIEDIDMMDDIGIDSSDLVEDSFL
T1 sequence (P10721 whole entry): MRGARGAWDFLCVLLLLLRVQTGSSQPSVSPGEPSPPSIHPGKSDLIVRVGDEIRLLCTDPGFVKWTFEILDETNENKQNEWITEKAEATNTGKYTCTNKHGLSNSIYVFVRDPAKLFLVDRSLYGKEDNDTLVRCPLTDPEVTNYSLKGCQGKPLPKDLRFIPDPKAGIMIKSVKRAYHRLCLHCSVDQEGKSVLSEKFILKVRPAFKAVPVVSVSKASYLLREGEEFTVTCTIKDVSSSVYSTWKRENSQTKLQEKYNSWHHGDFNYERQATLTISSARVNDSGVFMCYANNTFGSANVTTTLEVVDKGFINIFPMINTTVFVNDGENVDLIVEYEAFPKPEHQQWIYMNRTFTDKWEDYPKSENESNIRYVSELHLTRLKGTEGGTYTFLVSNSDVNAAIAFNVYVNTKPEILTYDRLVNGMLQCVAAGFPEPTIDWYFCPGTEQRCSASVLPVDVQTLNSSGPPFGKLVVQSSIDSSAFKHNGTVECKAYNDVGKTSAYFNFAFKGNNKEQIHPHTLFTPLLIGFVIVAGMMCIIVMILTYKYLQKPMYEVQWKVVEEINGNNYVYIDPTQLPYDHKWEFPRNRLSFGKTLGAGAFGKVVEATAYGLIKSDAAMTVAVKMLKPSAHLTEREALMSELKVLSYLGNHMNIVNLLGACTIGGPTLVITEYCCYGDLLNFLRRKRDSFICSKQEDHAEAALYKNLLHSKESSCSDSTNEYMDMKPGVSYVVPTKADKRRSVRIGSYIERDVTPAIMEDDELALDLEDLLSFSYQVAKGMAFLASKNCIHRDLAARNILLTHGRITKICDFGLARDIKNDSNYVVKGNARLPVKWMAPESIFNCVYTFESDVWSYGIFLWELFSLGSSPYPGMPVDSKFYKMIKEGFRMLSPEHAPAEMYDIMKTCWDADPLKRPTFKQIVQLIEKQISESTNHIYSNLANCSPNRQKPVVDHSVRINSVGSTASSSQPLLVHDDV
Chain of Mast/stem cell growth factor receptor Kit (Homo sapiens), P10721 [L576P] (P10721 whole entry L576P): as the sequence (P10721 whole entry) above, with L576P counted along it
Chain of Vascular endothelial growth factor receptor 2 (P35968 whole entry): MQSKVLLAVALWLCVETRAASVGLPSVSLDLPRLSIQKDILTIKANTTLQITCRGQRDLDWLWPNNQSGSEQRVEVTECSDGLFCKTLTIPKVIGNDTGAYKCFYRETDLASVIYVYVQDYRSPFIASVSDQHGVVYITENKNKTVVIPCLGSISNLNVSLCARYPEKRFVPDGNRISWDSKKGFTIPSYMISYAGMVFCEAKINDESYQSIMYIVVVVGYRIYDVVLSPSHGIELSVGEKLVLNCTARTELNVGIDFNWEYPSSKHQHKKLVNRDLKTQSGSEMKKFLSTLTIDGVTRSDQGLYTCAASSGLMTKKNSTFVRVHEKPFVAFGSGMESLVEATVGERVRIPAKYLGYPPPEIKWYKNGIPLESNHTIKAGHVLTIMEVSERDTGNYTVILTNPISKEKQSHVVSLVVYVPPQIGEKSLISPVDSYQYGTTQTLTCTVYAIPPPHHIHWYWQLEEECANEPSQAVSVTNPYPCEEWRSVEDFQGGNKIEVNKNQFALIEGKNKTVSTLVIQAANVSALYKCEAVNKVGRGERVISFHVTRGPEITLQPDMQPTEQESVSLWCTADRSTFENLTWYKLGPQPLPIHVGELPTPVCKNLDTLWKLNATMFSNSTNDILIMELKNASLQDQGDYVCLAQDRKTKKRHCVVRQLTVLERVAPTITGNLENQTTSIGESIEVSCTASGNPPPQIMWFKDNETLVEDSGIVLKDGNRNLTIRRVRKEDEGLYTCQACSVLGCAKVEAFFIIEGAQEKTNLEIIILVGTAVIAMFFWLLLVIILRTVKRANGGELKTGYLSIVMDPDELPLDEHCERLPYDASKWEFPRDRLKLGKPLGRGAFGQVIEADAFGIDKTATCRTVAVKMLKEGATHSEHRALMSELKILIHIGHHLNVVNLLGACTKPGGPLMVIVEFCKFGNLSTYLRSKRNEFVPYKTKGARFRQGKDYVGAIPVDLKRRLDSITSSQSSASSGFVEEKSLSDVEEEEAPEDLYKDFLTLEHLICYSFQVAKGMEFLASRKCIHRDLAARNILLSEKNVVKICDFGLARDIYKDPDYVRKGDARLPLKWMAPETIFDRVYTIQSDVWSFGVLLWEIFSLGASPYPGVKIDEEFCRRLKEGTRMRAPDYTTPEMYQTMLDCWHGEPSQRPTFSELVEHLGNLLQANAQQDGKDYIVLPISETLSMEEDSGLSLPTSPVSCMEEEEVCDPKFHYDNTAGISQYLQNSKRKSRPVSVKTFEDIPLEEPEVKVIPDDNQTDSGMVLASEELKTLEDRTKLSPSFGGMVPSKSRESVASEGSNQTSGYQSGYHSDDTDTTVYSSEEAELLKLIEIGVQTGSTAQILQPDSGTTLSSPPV

SMILES: Cc1cc(NC(=O)Nc2ccc(-c3ccnc4[nH]nc(C)c34)cc2)ccc1N1CCOCC1
- clearance [1]: 15.8 mL/min/kg
- GI50 [2]: 330 nM
- GI50 (KU812 cell line): > 10000 nM
- Activity (Mus musculus [3]): Non-Toxic
- AUC(0-t) at 24 h [4]: 4250 ng·h/mL
- Cmax [5]: 117 ng/mL
- Cmax [6]: 1890 ng/mL
- GI50 [7]: 134 nM
- half-life at 1 µM [8]: 0.779 h
- Tmax [9]: 4.98 min
- pIC50 [10]: 8.70
- pIC50 [11]: < 6.00
- GI50 [12]: 36.4 nM
- half-life [13]: 11 h
- GI50 [14]: 136 nM
- pIC50 [15]: 8.62
- half-life [16]: 0.69 h
- Tmax [17]: 4 h
- pIC50 [18]: 6.80
- pIC50 [19]: 7.14
- AUC(0-t) at 24 h [20]: 691 ng·h/mL
- MRT last at 24 h [21]: 5.67 h
- MRT inf [22]: 14.8 h
- GI50 [23]: 10.6 nM
- AUC(0-inf) [24]: 5390 ng·h/mL
- GI50 (K562): > 10000 nM
- inhibition in vivo at 25 mg/kg (BaF3 [25]): 16.8%
- GI50 [26]: 18.1 nM
- inhibition in vivo at 25 mg/kg (GISTT1): 20.2%
- GI50 [27]: 11.1 nM
- GI50 at 72 h [28]: > 10000 nM
- GI50 [29]: 10.4 nM
- pIC50 [30]: 8.14
- AUC(0-t) at 24 h [31]: 2240 ng·h/mL
- AUC(0-inf) [32]: 713 ng·h/mL
- Activity (Mus musculus [33]): Non-Toxic
- pIC50 [34]: 5.64
- inhibition in vivo at 100 mg/kg (BaF3 [35]): 41.9%
- GI50 (MEG-01): 9090 nM
